Converted amounts (≈) assume the structure as drawn.
What was measured:
Assay type in all cases: functional
[1] = system: Candida albicans; experiment: Antifungal activity against Candida albicans isolated from HSCT recipients with acute or chronic GVHD receiving fluconazole by broth microdilution method
[2] = system: Nakaseomyces glabratus; experiment: Antifungal activity against Candida glabrata isolated from neutropenic subject 1187 with AML or MDS stool after 22 days prophylaxis by broth microdilution method; details: 528 h
[3] = system: Saccharomyces cerevisiae; experiment: Antifungal activity against Saccharomyces cerevisiae isolated from HSCT recipient 513 with acute or chronic GVHD mouth after 112 days prophylaxis by broth microdilution method
[4] = system: Candida albicans; experiment: Antifungal activity against Candida albicans isolated from HSCT recipient 462 with acute or chronic GVHD mouth receiving antifungal drug after 112 days prophylaxis by broth microdilution method
[5] = system: Nakaseomyces glabratus; experiment: Antifungal activity against 12 days cultured Candida glabrata isolated from HSCT recipient with acute or chronic GVHD mouth receiving antifungal therapy for 143 days after 116 days of prophylaxis by broth microdilution method
[6] = system: Pichia kudriavzevii; experiment: Antifungal activity against Candida krusei isolated from HSCT recipients with acute or chronic GVHD prior to initiation of posaconazole therapy assessed as maximum MIC by broth microdilution method
[7] = system: Candida albicans; experiment: Antifungal activity against Candida albicans isolated from neutropenic subjects with AML or MDS receiving posaconazole by broth microdilution method
[8] = system: Nakaseomyces glabratus; experiment: Antifungal activity against Candida glabrata isolated from HSCT recipients with acute or chronic GVHD prior to initiation of fluconazole therapy assessed as maximum MIC by broth microdilution method
[9] = system: Pichia kudriavzevii; experiment: Antifungal activity against Candida krusei isolated from HSCT recipients with acute or chronic GVHD receiving fluconazole by broth microdilution method
[10] = system: Candida albicans; experiment: Antifungal activity against Candida albicans isolated from neutropenic subjects with AML or MDS receiving fluconazole by broth microdilution method
[11] = system: Nakaseomyces glabratus; experiment: Antifungal activity against 176 days cultured Candida glabrata isolated from HSCT recipient with acute or chronic GVHD mouth receiving antifungal therapy for 172 days after 114 days of prophylaxis by broth microdilution method
[12] = system: Pichia kudriavzevii; experiment: Antifungal activity against 13 days cultured Candida krusei isolated from invasive fungal infected subject blood after 12 days of prophylaxis by broth microdilution method
[13] = system: Candida albicans; experiment: Antifungal activity against Candida albicans isolated from neutropenic subjects with AML or MDS prior to initiation of fluconazole therapy assessed as maximum MIC by broth microdilution method
[14] = system: Nakaseomyces glabratus; experiment: Antifungal activity against Candida glabrata isolated from neutropenic subject 1102 with AML or MDS stool receiving antifungal drug after 26 days prophylaxis by broth microdilution method; details: 624 h
[15] = system: Nakaseomyces glabratus; experiment: Antifungal activity against Candida glabrata isolated from HSCT recipient 270 with acute or chronic GVHD mouth receiving antifungal drug after 108 days prophylaxis by broth microdilution method
[16] = system: Candida tropicalis; experiment: Antifungal activity against 2 days cultured Candida tropicalis isolated from neutropenic subject with AML or MDS stool receiving antifungal therapy for 45 days after 24 days of prophylaxis by broth microdilution method
[17] = system: Nakaseomyces glabratus; experiment: Antifungal activity against Candida glabrata isolated from neutropenic subject 1491 with AML or MDS pharynx after 23 days prophylaxis by broth microdilution method; details: 552 h
[18] = system: Nakaseomyces glabratus; experiment: Antifungal activity against 177 days cultured Candida glabrata isolated from HSCT recipient with acute or chronic GVHD mouth receiving antifungal therapy for 172 days after 114 days of prophylaxis by broth microdilution method
[19] = system: Nakaseomyces glabratus; experiment: Antifungal activity against Candida glabrata isolated from neutropenic subject 1102 with AML or MDS stool after 26 days prophylaxis by broth microdilution method; details: 624 h
[20] = system: Nakaseomyces glabratus; experiment: Antifungal activity against Candida glabrata isolated from neutropenic subject 1318 with AML or MDS stool after 36 days prophylaxis by broth microdilution method
[21] = system: Nakaseomyces glabratus; experiment: Antifungal activity against Candida glabrata isolated from neutropenic subjects with AML or MDS receiving fluconazole assessed as maximum MIC by broth microdilution method
[22] = system: Nakaseomyces glabratus; experiment: Antifungal activity against Candida glabrata isolated from HSCT recipient 186 with acute or chronic GVHD mouth after 112 days prophylaxis by broth microdilution method
[23] = system: Candida albicans; experiment: Antifungal activity against Candida albicans isolated from neutropenic subjects with AML or MDS receiving posaconazole assessed as maximum MIC by broth microdilution method
[24] = system: Pichia kudriavzevii; experiment: Antifungal activity against 16 days cultured Candida krusei isolated from neutropenic subject with AML or MDS pharynx receiving antifungal therapy for 19 days after 6 days of prophylaxis by broth microdilution method
[25] = system: Pichia kudriavzevii; experiment: Antifungal activity against 8 days cultured Candida krusei isolated from neutropenic subject with AML or MDS pharynx after 12 days of prophylaxis by broth microdilution method
[26] = system: Nakaseomyces glabratus; experiment: Antifungal activity against Candida glabrata isolated from HSCT recipient 186 with acute or chronic GVHD mouth receiving antifungal drug after 112 days prophylaxis by broth microdilution method
[27] = system: Nakaseomyces glabratus; experiment: Antifungal activity against Candida glabrata isolated from HSCT recipient 002 with acute or chronic GVHD mouth receiving antifungal drug after 116 days prophylaxis by broth microdilution method
[28] = system: Nakaseomyces glabratus; experiment: Antifungal activity against Candida glabrata isolated from HSCT recipient 491 with acute or chronic GVHD mouth receiving antifungal drug after 112 days prophylaxis by broth microdilution method
[29] = system: Nakaseomyces glabratus; experiment: Antifungal activity against 29 days cultured Candida glabrata isolated from neutropenic subject with AML or MDS stool after 48 days of prophylaxis by broth microdilution method
[30] = system: Nakaseomyces glabratus; experiment: Antifungal activity against 19 days cultured Candida glabrata isolated from HSCT recipient with acute or chronic GVHD mouth after 17 days of prophylaxis by broth microdilution method
[31] = system: Nakaseomyces glabratus; experiment: Antifungal activity against 1 day cultured Candida glabrata isolated from HSCT recipient with acute or chronic GVHD mouth receiving antifungal therapy for 143 days after 116 days of prophylaxis by broth microdilution method
[32] = system: Nakaseomyces glabratus; experiment: Antifungal activity against 16 days cultured Candida glabrata isolated from HSCT recipient with acute or chronic GVHD mouth receiving antifungal therapy for 31 days after 28 days of prophylaxis by broth microdilution method
[33] = system: Nakaseomyces glabratus; experiment: Antifungal activity against Candida glabrata isolated from neutropenic subjects with AML or MDS prior to initiation of fluconazole therapy by broth microdilution method
[34] = system: Nakaseomyces glabratus; experiment: Antifungal activity against 35 days cultured Candida glabrata isolated from HSCT recipient with acute or chronic GVHD mouth receiving antifungal therapy for 165 days after 138 days of prophylaxis by broth microdilution method
[35] = system: Nakaseomyces glabratus; experiment: Antifungal activity against 3 days cultured Candida glabrata isolated from neutropenic subject with AML or MDS stool receiving antifungal therapy for 25 days after 3 days of prophylaxis by broth microdilution method
[36] = system: Pichia kudriavzevii; experiment: Antifungal activity against 14 days cultured Candida krusei isolated from neutropenic subject with AML or MDS pharynx after 12 days of prophylaxis by broth microdilution method
[37] = system: Pichia kudriavzevii; experiment: Antifungal activity against 6 days cultured Candida krusei isolated from neutropenic subject with AML or MDS pharynx receiving antifungal therapy for 19 days after 6 days of prophylaxis by broth microdilution method
[38] = system: Nakaseomyces glabratus; experiment: Antifungal activity against Candida glabrata isolated from neutropenic subject 1331 with AML or MDS pharynx receiving antifungal drug after 21 days prophylaxis by broth microdilution method; details: 504 h
[39] = system: Nakaseomyces glabratus; experiment: Antifungal activity against Candida glabrata isolated from HSCT recipients with acute or chronic GVHD prior to initiation of posaconazole therapy by broth microdilution method

For `CC[C@@H]([C@H](C)O)n1ncn(-c2ccc(N3CCN(c4ccc(OC[C@@H]5CO[C@@](Cn6cncn6)(c6ccc(F)cc6F)C5)cc4)CC3)cc2)c1=O` [POSACONAZOLE], the MIC50 [1] was 0.03 µg/mL (≈ 0.0428 µM), the MIC90 [1] was 16 µg/mL (≈ 22.8 µM) and the MIC [2] was 0.5 µg/mL (≈ 0.713 µM). For the same molecule, the MIC [3] was 1 µg/mL (≈ 1.43 µM), the MIC [4] was 0.06 µg/mL (≈ 0.0856 µM) and the MIC [5] was 2 µg/mL (≈ 2.85 µM). For the same molecule, the MIC [6] was 0.5 µg/mL, the MIC50 [7] was 0.015 µg/mL (≈ 0.0214 µM) and the MIC90 [7] was 0.015 µg/mL (≈ 0.0214 µM). It also gave an MIC [8] of 16 µg/mL, an MIC50 [9] of 0.25 µg/mL (≈ 0.357 µM) and an MIC90 [9] of 0.5 µg/mL (≈ 0.713 µM). The MIC50 [10] was 0.015 µg/mL (≈ 0.0214 µM), the MIC90 [10] was 0.015 µg/mL (≈ 0.0214 µM) and the MIC [11] was 2 µg/mL (≈ 2.85 µM). For the same molecule, the MIC [12] was 0.25 µg/mL (≈ 0.357 µM), the MIC [13] was 0.06 µg/mL and the MIC [14] was over 8 µg/mL. It also gave an MIC [15] of 1 µg/mL (≈ 1.43 µM), an MIC [16] of under 0.015 µg/mL and an MIC [17] of 0.5 µg/mL (≈ 0.713 µM). It also gave an MIC [18] of 1 µg/mL (≈ 1.43 µM), an MIC [19] of 0.25 µg/mL (≈ 0.357 µM) and an MIC [20] of 0.5 µg/mL (≈ 0.713 µM). For the same molecule, the MIC [21] was 2 µg/mL, the MIC [22] was 0.25 µg/mL (≈ 0.357 µM) and the MIC [23] was 0.03 µg/mL. It also gave an MIC [24] of 0.25 µg/mL (≈ 0.357 µM), an MIC [25] of 0.125 µg/mL (≈ 0.178 µM) and an MIC [26] of 2 µg/mL (≈ 2.85 µM). It also gave an MIC [27] of 4 µg/mL (≈ 5.71 µM), an MIC [28] of 2 µg/mL (≈ 2.85 µM) and an MIC [29] of 1 µg/mL (≈ 1.43 µM). The MIC [30] was 8 µg/mL (≈ 11.4 µM), the MIC [31] was 0.5 µg/mL (≈ 0.713 µM) and the MIC [32] was under 0.5 µg/mL. The MIC50 [33] was 0.5 µg/mL (≈ 0.713 µM), the MIC90 [33] was 2 µg/mL (≈ 2.85 µM) and the MIC [34] was 4 µg/mL (≈ 5.71 µM). The MIC [35] was 0.5 µg/mL (≈ 0.713 µM), the MIC [36] was 0.125 µg/mL (≈ 0.178 µM) and the MIC [37] was 0.06 µg/mL (≈ 0.0856 µM). It also gave an MIC [38] of 8 µg/mL (≈ 11.4 µM), an MIC50 [39] of 0.5 µg/mL (≈ 0.713 µM) and an MIC90 [39] of 4 µg/mL (≈ 5.71 µM).

Source: ChEMBL document CHEMBL1687752, “Impact of antifungal prophylaxis on colonization and azole susceptibility of Candida species” (2009)
